Laboratory results from US20230279008A1, “PTGR2 INHIBITORS AND THEIR USE” (National Health Research Institutes, priority 2022, published 2023).
pEC50, pIC50: −log10 of the molar value.

Assays:
human PTGR2 [1] = molecular target: T1, human PTGR2 (Homo sapiens (Human), UniProt Q8N8N7); experiment: In vitro PTGR2 enzyme activity assay (NADPH decrease, Glo-NADPH luminescence); format: biochemical; conditions: 15-keto-PGE2 20 μM, NADPH 20 μM, pH 7.3
Procedure: In vitro enzyme activity was measured to determine the half maximal inhibitory concentration (IC50) of compounds of this invention as PTGR2 inhibitors. The reduction of 15-keto-PGE2 by PTGR2 requires NADPH. The decrease of NADPH during the reduction reaction indicates […] of PTGR2 and thus is used to calculate the IC50 of a PTGR2 inhibitor. […] The resultant mixture was pre-incubated at room temperature for 15 minutes. After the incubation, 15-keto-PGE2 was added to a final concentration of 20 μM, together with NADPH (20 μM, final concentration) and a Glo-NADPH reagent (commercially available from Promega Corporation, Madison, Wis.).

human PTGR2 [2] = molecular target: T1, human PTGR2; experiment: Cell-based GAL4-PPAR luciferase reporter assay in HEK293T cells transfected with human PTGR2; conditions: UASG reporter, GAL4-PPAR and human PTGR2-Tag vectors, luciferase normalized to TK-Rluc
Procedure: HEK293T cells were seeded at 1×10^5 cells/well in a 24-well plate. […] Cells were treated and harvested in two batches, one after 24 hours and another after 48 hours. The luciferase activity was measured by a Luc-Pair™ Duo-Luciferase HS Assay Kit (commercially available from Promega Corporation) and normalized to the TK-Rluc reporter signal, which was recorded and used to calculate the EC50 value of a PTGR2 inhibitor.

T1 sequence (Q8N8N7 whole entry): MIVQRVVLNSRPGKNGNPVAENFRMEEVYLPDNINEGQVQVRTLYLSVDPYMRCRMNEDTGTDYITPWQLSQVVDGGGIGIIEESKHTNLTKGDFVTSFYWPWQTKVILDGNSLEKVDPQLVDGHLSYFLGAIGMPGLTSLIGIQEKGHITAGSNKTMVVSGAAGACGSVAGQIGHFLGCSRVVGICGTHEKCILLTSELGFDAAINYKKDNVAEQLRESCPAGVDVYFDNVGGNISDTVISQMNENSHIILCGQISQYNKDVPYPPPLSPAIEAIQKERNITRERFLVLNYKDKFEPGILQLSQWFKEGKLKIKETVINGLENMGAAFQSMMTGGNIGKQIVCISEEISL

pIC50 (human PTGR2 [1])	pEC50 (human PTGR2 [2])	Structure (SMILES)
7.63	6.28	Cc1[nH]c2nc(CN3CCN(c4nccs4)CC3)nn2c(=O)c1Cc1cccc(Cl)c1 [Compound 26, 6-(3-chlorobenzyl)-5-methyl-2-((4-(thiazol-2-yl)piperazin-1-yl)methyl)-[1,2,4]triazolo[1,5-a] pyrimidin-7(3H)-one]
9.30	6.76	COc1ccccc1N1CCN(Cc2nc3[nH]c(C)c(Cc4cccc(Cl)c4)c(=O)n3n2)CC1 [Compound 32, 6-(3-chlorobenzyl)-2-((4-(2-methoxyphenyl)piperazin-1-yl)methyl)-5-methyl-[1,2,4]triazolo[1,5-a]pyrimidin-7(3H)-one]
7.22	6.37	Cc1[nH]c2nc(C=C3CCN(c4ccccc4)CC3)nn2c(=O)c1Cc1cccc(Cl)c1 [Compound 34, 6-(3-chlorobenzyl)-5-methyl-2-((1-phenylpiperidin-4-ylidene)methyl)-[1,2,4]triazolo[1,5-a] pyrimidin-7(4H)-one]
10.70	6.52	Cc1[nH]c2nc(CN3CCN(c4ccccc4)CC3)nn2c(=O)c1Cc1cccc(Cl)c1F [Compound 6, 6-(3-chloro-2-fluorobenzyl)-5-methyl-2-((4-phenylpiperazin-1-yl)methyl)-[1,2,4]triazolo[1,5-a]pyrimidin-7(3H)-one]
8.77	6.55	COc1ccc(Cc2c(C)[nH]c3nc(C(C)N4CCN(c5ccccc5)CC4)nn3c2=O)cc1 (centres unmarked) [Compound 18, 6-(4-methoxybenzyl)-5-methyl-2-(1-(4-phenylpiperazin-1-yl)ethyl)-[1,2,4]triazolo[1,5-a] pyrimidin-7(4H)-one]
7.90	7.39	COc1ccc(Cc2c(C)[nH]c3nc(C(C)N4CCN(c5ccccc5)CC4)nn3c2=O)c(F)c1 (centres unmarked) [Compound 5, 6-(2-fluoro-4-methoxybenzyl)-5-methyl-2-(1-(4-phenylpiperazin-1-yl)ethyl)-[1,2,4]triazolo[1,5-a]pyrimidin-7(4H)-one]
7.27	7.21	Cc1[nH]c2nc(C(C)N3CCN(c4ccccc4)CC3)nn2c(=O)c1Cc1cccc(Cl)c1 (centres unmarked) [Compound 11, 6-(3-chlorobenzyl)-5-methyl-2-(1-(4-phenylpiperazin-1-yl)ethyl)-[1,2,4]triazolo[1,5-a]pyrimidin-7(3H)-one]
8.39	8.15	Cc1[nH]c2nc(C(C)N3CCN(c4ccccc4)CC3)nn2c(=O)c1Cc1cc(F)c(F)cc1F (centres unmarked) [Compound 7, 5-methyl-2-(1-(4-phenylpiperazin-1-yl)ethyl)-6-(2,4,5-trifluorobenzyl)-[1,2,4]triazolo[1,5-a]pyrimidin-7(4H)-one]
7.37	6.95	CC(C)c1cc(=O)[nH]c(SCC(=O)N2CCN(c3nccs3)[C@@H](C)C2)n1 [Compound 2, (S)-6-isopropyl-2-((2-(3-methyl-4-(thiazol-2-yl)piperazin-1-yl)-2-oxoethyl)thio)pyrimidin-4(3H)-one]
7.76	6.79	Cc1[nH]c2nc(C(C)N3CCN(c4ccccc4)CC3)nn2c(=O)c1Cc1ccc(Cl)cc1 (centres unmarked) [Compound 20, 6-(4-chlorobenzyl)-5-methyl-2-(1-(4-phenylpiperazin-1-yl)ethyl)-[1,2,4]triazolo[1,5-a]pyrimidin-7(4H)-one]
8.10	7.11	Cc1[nH]c2nc(C(C)N3CCN(c4ccccc4)CC3)nn2c(=O)c1Cc1cccc(F)c1 (centres unmarked) [Compound 10, 6-(3-fluorobenzyl)-5-methyl-2-(1-(4-phenylpiperazin-1-yl)ethyl)-[1,2,4]triazolo[1,5-a]pyrimidin-7(4H)-one]
7.47	7.19	COc1ccc(Cc2c(C)[nH]c3nc(C(C)N4CCN(c5ccccc5)CC4)nn3c2=O)cc1F (centres unmarked) [Compound 15, 6-(3-fluoro-4-methoxybenzyl)-5-methyl-2-(1-(4-phenylpiperazin-1-yl)ethyl)-[1,2,4]triazolo[1,5-a]pyrimidin-7(4H)-one]
7.07	6.97	CCCc1cc(=O)[nH]c(SCC(=O)N2CCN(c3ccccc3OC)[C@@H](C)C2)n1 [Compound 28, (S)-2-((2-(4-(2-methoxyphenyl)-3-methylpiperazin-1-yl)-2-oxoethyl)thio)-6-propylpyrimidin-4(3H)-one]
8.05	7.24	Cc1[nH]c2nc(C(C)N3CCN(c4ccccc4)CC3)nn2c(=O)c1Cc1ccc(F)cc1 (centres unmarked) [Compound 19, 6-(4-fluorobenzyl)-5-methyl-2-(1-(4-phenylpiperazin-1-yl)ethyl)-[1,2,4]triazolo[1,5-a]pyrimidin-7(4H)-one]
7.28	6.68	COc1ccccc1N1CCN(C(=O)CSc2nc(C(C)C)cc(=O)[nH]2)C[C@H]1C [Compound 53, (R)-6-isopropyl-2-((2-(4-(2-methoxyphenyl)-3-methylpiperazin-1-yl)-2-oxoethyl)thio)pyrimidin-4(3H)-one]
7.50	6.61	Cc1[nH]c2nc(C(C)N3CCN(c4ccccc4)[C@H](C)C3)nn2c(=O)c1Cc1ccc(F)cc1 (stereo partly drawn) [Compound 54, 6-(4-fluorobenzyl)-5-methyl-2-(1-((R)-3-methyl-4-phenylpiperazin-1-yl)ethyl)-[1,2,4]triazolo [1,5-a]pyrimidin-7(4H)-one]
7.21	7.72	Cc1[nH]c2nc(C(C)N3CCN(c4ccccc4)CC3)nn2c(=O)c1Cc1cccc(C(F)(F)F)c1 (centres unmarked) [Compound 13, 5-methyl-2-(1-(4-phenylpiperazin-1-yl)ethyl)-6-(3-(trifluoromethyl)benzyl)-[1,2,4]triazolo[1,5-a]pyrimidin-7(4H)-one]
9.70	6.06	COc1ccccc1N1CCN(Cc2nc3[nH]c(C)c(Cc4ccc(Cl)cc4)c(=O)n3n2)CC1 [Compound 1, 6-(4-chlorobenzyl)-2-((4-(2-methoxyphenyl)piperazin-1-yl)methyl)-5-methyl-[1,2,4]triazolo[1,5-a]pyrimidin-7(4H)-one]
7.09	6.78	CCOc1ccccc1N1CCN(C(=O)CSc2nc(C(C)C)cc(=O)[nH]2)CC1 [Compound 63, 2-((2-(4-(2-ethoxyphenyl)piperazin-1-yl)-2-oxoethyl)thio)-6-isopropylpyrimidin-4(3H)-one]
7.92	6.98	Cc1ccc(Cc2c(C)[nH]c3nc(C(C)N4CCN(c5ccccc5)CC4)nn3c2=O)cc1 (centres unmarked) [Compound 17, 5-methyl-6-(4-methylbenzyl)-2-(1-(4-phenylpiperazin-1-yl)ethyl)-[1,2,4]triazolo[1,5-a] pyrimidin-7(4H)-one]
7.06	6.92	CCCc1cc(=O)[nH]c(SCC(=O)N2CCN(c3nccs3)CC2)n1 [Compound 46, 2-((2-oxo-2-(4-(thiazol-2-yl)piperazin-1-yl)ethyl)thio)-6-propylpyrimidin-4(3H)-one]
11.00	6.63	Cc1[nH]c2nc(CN3CCN(c4ccccc4)CC3)nn2c(=O)c1Cc1cccc(Cl)c1 [Compound 12, 6-(3-chlorobenzyl)-5-methyl-2-((4-phenylpiperazin-1-yl)methyl)-[1,2,4]triazolo[1,5-a]pyrimidin-7(3H)-one]
